From paper PMC11799239, “Mechanistic insights into Rho/MRTF inhibition-induced apoptotic events and prevention of drug resistance in melanoma: implications for the involvement of pirin” (Frontiers in Pharmacology, 2025)

Target: T1, pirin (Homo sapiens, UniProt O00625)
T1 construct: gene PIR
T1 sequence (O00625 1-290): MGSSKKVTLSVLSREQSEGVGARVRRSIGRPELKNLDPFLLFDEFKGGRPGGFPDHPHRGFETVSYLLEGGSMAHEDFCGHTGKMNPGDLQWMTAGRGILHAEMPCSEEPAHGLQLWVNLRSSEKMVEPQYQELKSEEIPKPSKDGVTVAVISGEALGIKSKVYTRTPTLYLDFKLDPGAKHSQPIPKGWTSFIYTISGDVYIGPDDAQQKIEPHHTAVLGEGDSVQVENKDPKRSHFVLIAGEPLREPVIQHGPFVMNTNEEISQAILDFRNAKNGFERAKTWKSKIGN
Experiment: fluorescence polarization competition with a pirin FP reporter compound
Type: binding
Settings: read-out: CCG-257081 (S enantiomer) [drawing 1]

IC50: 8 µM
Structure (SMILES): O=C(Nc1ccc(Cl)cc1)[C@@H]1CN(C(=O)c2cc(F)cc(-c3ccncc3)c2)CC(F)(F)C1 [(S) CCG-257081]
